Patent US7910363B1, “Lipophilic polyamines providing enhanced intracellular delivery of agents by a polyamine transport system” (University of Central Florida Research Foundation, Inc., priority 2007, dated 2011)

How the values were obtained:
CHO K1 cells [1] = test: eGFP DNA plasmid transfection, GFP expression by FACS (FIG. 10, FIG. 11); type: cell-based, Chinese hamster; conditions: for % GFP positive cells (transfection efficiency): 5 μg/mL dose
Protocol: (§1) Medium was then changed, and cells were incubated for another 24 h to allow for GFP plasmid expression; cells were detached by trypsin treatment and analyzed for GFP expression by FACS; Lipofectamine is denoted as LFA; the value obtained with DNA plasmid only was subtracted from each entry above (almost negligible);
In order for the ‘therapy’ to be effective, the DNA must escape from the endosome and enter the cell's nucleus, be transcribed to a regulatory, non coding RNA (RNAi) or to mRNA that is translated into its coded protein. Therefore, we investigated the conjugate-assisted expression of an eGFP DNA plasmid encoding for the green fluorescent protein (GFP). CHO cells, which were successfully transfected, were easily identified by their green fluorescence. Control experiments conducted with only the eGFP DNA plasmid (and no lipid carrier) gave virtually no fluorescence. A gate or instrumental threshold was set based upon this low background fluorescence. Fluorescence detected above this background was considered a positive response.
as §1, with “expression. Cells” for “expression; cells”, “FACS.” for “FACS;”, “LFA. The” for “LFA; the”, “negligible).” for “negligible);”
A gate was set just above the threshold measured with no DNA plasmid and no conjugate added (almost negligible). […] Data are presented as the mean±SD.
(§2) GFP transfection experiments—eGFP encoding DNA plasmid with or without cationic lipid was mixed in F12K and incubated with pre-rinsed, sub-confluent cells in 24-well plates for 4 h, followed by another incubation period of 24 h in growth medium. Cells were then washed with PBS, detached by trypsin treatment, dissolved in PBS, 1% BSA, and analyzed by FACS for GFP expression.

CHO K1 cells [2] = conditions: for DNA uptake compared with the lipofectamine control: 0.5, 2.5, 5 μg/mL; for increase in DNA uptake/delivery over diamine 22: FIG. 8, 5 μg/mL dose; for DNA uptake, fluorescence of imported Alexa Fluor-488-DNA: 5 μg/mL cationic lipid (black bars, FIG. 8), 1 μg/mL DNA, 4 h at 37° C.
Protocol: CHO K1 cells were grown to confluence in 24-well plates, rinsed with medium and incubated for 4 h at 37° C. with 1 μg/mL Alexa Fluor-488-DNA complexed with 0.5 μg/mL (white bars), 2.5 μg/mL (gray bars), or 5 μg/mL (black bars) of the respective cationic lipid, as indicated above each entry; cells were then extensively washed with PBS, treated with trypsin, and cell pellets were again extensively washed with PBS 1% BSA to completely remove non-specific fluorescence from the cell exterior; finally, cells were analyzed for Alexa Fluor-488-DNA uptake by flow cytometry on a FACSCalibur (BD Biosciences) operated by Cell-Quest software.
CHO K1 cells were grown to confluence in 24-well plates, rinsed with medium and incubated for 4 h at 37° C. with 1 μg/mL Alexa Fluor-488-DNA complexed with 0.5 μg/mL (white bars), 2.5 μg/mL (grey bars), or 5 μg/mL (black bars) of the respective cationic lipid, as indicated above each entry. Cells were then extensively washed with PBS, treated with trypsin, and cell pellets were again extensively washed with PBS 1% BSA to completely remove non-specific fluorescence from the cell exterior. Finally, cells were analyzed for Alexa Fluor-488-DNA uptake by flow cytometry on a FACSCalibur (BD Biosciences) operated by Cell-Quest software.
A gate was set just above the threshold signal for control cells (DNA only with no lipid conjugate). […] Data are presented as the mean±SD.
AlexaFluor-488 labeled DNA with or without cationic lipid was mixed in serum-free F12K and added to extensively rinsed cells grown in 24-well plates. Cells were then incubated for 4 h at 37° C. After removal of the incubation medium and rinsing with PBS, cells were detached with trypsin followed by extensive washing with ice-cold PBS, 1% (w/v) bovine serum albumin (BSA) to remove non-specific fluorescence. Finally, cells were suspended in PBS, 1% BSA and analyzed for DNA uptake by flow cytometry on a FACSCalibur (BD Biosciences) operated by Cell-Quest software.

CHO K1 cells [3] = type: cell-based; conditions: Chinese hamster, 24 h, 0.5 μM
Protocol: Taking these factors into account, cytotoxicity screens were performed to investigate the relative toxicity of each system. Most materials were relatively non-toxic with IC50 values ≧20 μM. Armed with this insight, cells were treated with ≦6.4 μM of the polyamine conjugate so as to avoid significant toxic effects from the delivery agent itself. Indeed, at this dose ≧90% of cells survived transfection for all compounds except 28. Indeed, compound 28 was very toxic (after 24 h incubation) and even at the lowest dose used for transfection (0.5 μg/mL; 0.5 μM 28) killed 95% of the cells. As such, 28 was too toxic for efficient transfection at the doses surveyed and its data is strongly biased by the few remaining cells, which survived.
as §2

HeLa cells [4] = conditions: cited from earlier work
[5] = system: polyamine transporter, PAT; test: [14C]Spermine uptake inhibition (competition assay) in CHO-K1 cells (FIG. 12); type: cell-based, Chinese hamster
Text: We theorized that 26 may be using the polyamine transporter, PAT, for cellular entry. […] This observation implied that 26 was able to compete for the polyamine recognition sites on the cell surface (e.g., PAT). Therefore, it is possible that certain lipophilic polyamines, which present the correct polyamine ‘message’, may be able to recognize and target cells expressing high levels of polyamine transporters on their cell surface (e.g., cancer cells, rapidly dividing tumors, etc.). However, as shown in this report, delivery into the cell is just one step in successful gene transfection. Nevertheless, the findings disclosed herein are an important first step in developing ‘smart’ transfection agents.

[6] = system: DU145 human prostate cancer cells; test: Lipopolyamine-induced sensitization to FGF-saporin intoxication, DU145; type: cell-based
Protocol: (§3) We have also documented lipopolyamine-induced toxin sensitization with two other saporin-based toxins: (i) FGF-saporin, a chemical conjugate between fibroblast growth factor and saporin; and (ii) the OKT10 immunotoxin which consists of a chemical conjugate between saporin and an antibody that recognizes the CD38 cancer antigen. DU145 human prostate cancer cells exposed to lipopolyamine 26 and FGF-saporin were 85-fold more sensitive to intoxication than cells incubated with FGF-saporin alone. […] We have also shown that Ramos human leukemia cells exposed to lipopolyamine 26 and OKT10 are 100-fold more sensitive to intoxication than cells incubated with OKT10 alone.

HeLa cells [7] = test: Sensitization to FGF-saporin intoxication in non-target HeLa cells; type: cell-based; conditions: which do not express the FGF receptor
[8] = system: Ramos human leukemia cells; test: Sensitization to OKT10 immunotoxin intoxication, Ramos; type: cell-based
Protocol: as §3

SMILES | % GFP positive cells (transfection efficiency) (CHO K1 cells [1]; FIG. 11) | GFP expression/cell (CHO K1 cells [1]; 5 μg/mL, FIG. 10) | DNA uptake compared with the lipofectamine control (CHO K1 cells [2]; FIG. 8) | increase in DNA uptake/delivery over diamine 22 (CHO K1 cells [2]) | DNA uptake, fluorescence of imported Alexa Fluor-488-DNA (CHO K1 cells [2]) | other results
CCCCCCCCC=CCCCCCCCCOc1ccc(CNCCOCCOCCN)cc1OCCCCCCCCC=CCCCCCCCC.Cl.Cl [Compound 24, 2-{2-[2-(3,4-Bis-octadec-9-enyloxy-benzylamino)-ethoxy]-ethoxy}-ethylamine, dihydrochloride salt] | 25% | 7 a.u. | as good | – | – | DNA delivery (DNA probe fluorescence) of polyether eight-atom spacer versus octanediamine analogue (CHO K1 cells [2]; FIG. 8): nearly doubled
CCCCCCCCC=CCCCCCCCCOc1ccc(C(=O)NCCCCNCCCCNCCCCN)cc1OCCCCCCCCC=CCCCCCCCC.Cl.Cl.Cl [Compound 28, N-{4-[4-(4-Amino-butylamino)-butylamino]-butyl}-3,4-bis-octadec-9-enyloxy-benzamide, trihydrochloride salt] | – | – | – | – | – | cells killed (CHO K1 cells [3]): 95%
CCCCCCCCC=CCCCCCCCCOc1ccc(C(=O)NCCCCNCCCCN)cc1OCCCCCCCCC=CCCCCCCCC.Cl.Cl [Compound 27, N-[4-(4-Amino-butylamino)-butyl]-3,4-bis-octadec-9-enyloxy-benzamide, dihydrochloride salt] | 40% | – | better | greater than 4 fold | – | transfection efficiency compared with 22 (CHO K1 cells [1]; FIG. 11): nearly identical transfection efficiency; DNA delivery compared with 22 (CHO K1 cells [2]; FIG. 8): more efficient DNA delivery agent than 22
CCCCCCCCCCCCCCCCCCN(CCCCCCCCCCCCCCCCCC)C(=O)CNC(=O)CNCCCNCCCCNCCCN [RPR 120535] | – | – | – | – | – | more effective at transfection than branched-, globular- or T-shaped polar domains (HeLa cells [4]): 5-10 times
CCCCCCCCC=CCCCCCCCCOc1ccc(CNCCCCNCCCCN)cc1OCCCCCCCCC=CCCCCCCCC.Cl.Cl.Cl [Compound 25, N-(4-Amino-butyl)-N′-(3,4-bis-octadec-9-enyloxy-benzyl)-butane-1,4-diamine, tri hydrochloride salt] | 49% | – | as good | 3 fold | 281 a.u. | transfection efficiency compared with 22 (CHO K1 cells [1]; FIG. 11): only slightly higher transfection efficiency than 22; DNA delivery compared with 22 (CHO K1 cells [2]; FIG. 8): three-fold increase
CCCCCCCCC=CCCCCCCCCOc1ccc(CNCCCCCCCCN)cc1OCCCCCCCCC=CCCCCCCCC.Cl.Cl [Compound 23, N^1-(3,4-Bis-octadec-9-enyloxy-benzyl)-octane-1,8-diamine, dihydrochloride salt] | 23% | 5 a.u. | – | – | – | positive cells of the total cell population after DNA uptake experiment (CHO K1 cells [2]; 5 μg/mL, black bars in FIG. 9, gated): 84%
CCCCCCCCC=CCCCCCCCCOc1ccc(CNCCCCNCCCCNCCCCN)cc1OCCCCCCCCC=CCCCCCCCC.Cl.Cl.Cl.Cl [Compound 26, N-[4-(4-Amino-butylamino)-butyl]-N′-(3,4-bis-octadec-9-enyloxy-benzyl)-butane-1,4-diamine, tetrahydrochloride salt] | 67% | 25 a.u. | better | > 5 fold | 504 a.u. | higher transfection efficiency than the LFA control (CHO K1 cells [1]; 5 μg/mL, FIG. 11): over 50%; relative GFP expression/cell versus LFA (CHO K1 cells [1]; FIG. 10): two fold higher; % of GFP positive cells relative to LFA (CHO K1 cells [1]; FIG. 11): 1.5 fold; IC50 ([5]; 1 μM [14C]spermine, 20 min, serum free medium, CHO-K1): ~10 µM; polyamine uptake inhibition ([5]; FIG. 12 legend): efficient inhibitor of polyamine uptake; sensitivity to FGF-saporin intoxication versus FGF-saporin alone [6]: 85 fold; sensitization of non-target cells to FGF-saporin (HeLa cells [7]): no more sensitive to intoxication; sensitivity to OKT10 intoxication versus OKT10 alone [8]: 100 fold; DNA delivered to the cell relative to control LFA (CHO K1 cells [2]; black bars in FIG. 8, 5 μg/mL): 3 fold
CCCCCCCCC=CCCCCCCCCOc1ccc(CNCCCCN)cc1OCCCCCCCCC=CCCCCCCCC.Cl.Cl [Compound 22, N^1-(3,4-Bis-octadec-9-enyloxy-benzyl)-butane-1,4-diamine, dihydrochloride salt] | 38% | – | – | – | 94 a.u. | –
